Data on 24 molecules can be found in patent US5217961A, “Condensed quinoline system N-glycosides” (Mect Corporation, priority 1988, dated 1993).

For assay [1], the system named is KB cells. The assay can be described thus: Function for inhibiting multiplication of KB cell (in vitro test). Type of assay: cell-based, human. As to conditions: compound added day 1, cells counted day 4, effective when ED50 < 4 μg/ml, 4320 min. How it is done: KB cells, carcinomatous cell tumors, were transferred to in vitro floatation incubator systems, and added respectively with compounds of Examples 1 to 33. The results of cultivation added with these compounds were compared with the results of the control which was not added with any compound.
Cell used: KB Cell (Originating from human mouth epidermal cancer)
Culture medium: Eagles minimal essential medium (MEM) supplemented with 10% calf serum
Cultivation: 37° C. carbon dioxide gas incubator (5% CO2)
Day 0: KB cells were diluted in the culture medium to adjust the KB cell density to 2×10^4 /ml. Three ml of the cell suspension was inoculated in each of 60 mm plastic dishes. Two dishes per standard dosage were used.
Day 1: Test compound was added to the medium so that the final concentrations were set to 100, 30, 10, 3 and 1 μg/ml.
Day 4: Cells were scraped off from the dish using trypsin, and the cell number was countered using a Corter counter.
In generally accordance with the stipulations set forth by the National Cancer Institute (NCI) U.S.A., the concentration of compound necessary for exerting 50% growth inhibition (ED50) compared to the contral was determined.

In assay [2] the test system is P-388. As to the kind of experiment: Effect on prolongation of life span in cancer implanted mouse (P-388). It is filed as in vivo, CDF mouse. The settings on record: day 1 and day 5, P-388 i.p.; for responders at 100 mg/kg / responders at 200 mg/kg / responders at 25 mg/kg / responders at 50 mg/kg / responders at 12.5 mg/kg / cure (mice cured / mice in group) / responders at 400 mg/kg: 6 mice/group; for responders at 100 mg/kg / responders at 200 mg/kg / responders at 25 mg/kg / responders at 50 mg/kg / responders at 12.5 mg/kg / responders at 400 mg/kg: read-out: cure (mice cured / mice in group) (converted). How it is done:
Animal used: CDF mouse (6 mice/group)
Number of implanted cells: 10^6 cells/mouse
Day of administration: Day 1 and Day 5
Dosage: LD50 or 400 mg/kg/day at the maximum

Where [3] appears, read: 25 mg/kg, effective when T/C >= 120%.
[4] abbreviates: 50 mg/kg, effective when T/C >= 120%.
Where [5] appears, read: Mus musculus, P388, ip, 100 mg/kg.
Setting [6] is: Mus musculus, P388, ip, 200 mg/kg.
[7] abbreviates: Mus musculus, P388, ip, 25 mg/kg.
Where [8] appears, read: Mus musculus, P388, ip, 50 mg/kg.
Setting [9] is: Mus musculus, P388, ip, 12.5 mg/kg.
Setting [10] is: Mus musculus, P388, ip, 50 mg/kg, effective when T/C >= 120%, read-out: Ratio of Life Prolongation (%) (T/C %).
Setting [11] is: Mus musculus, P388, ip, 400 mg/kg.

With “6-(4-methanesulfonamide-anilino)-indeno[3,2-b]quinoline [Compound 5]”, the “Conc. (ED50), concentration necessary for exerting 50% growth inhibition of KB cells” value in assay [1] is less than 0.3 µg/mL. Also, the “Ratio of Life Prolongation (%) (T/C %)” value in assay [2] (setting [3]) turned out to be 140%; in assay [2] (setting [4]), 135%; in assay [2] (100 mg/kg, effective when T/C >= 120%) it was 163%; in assay [2] (200 mg/kg, effective when T/C >= 120%), 172%; in assay [2] (400 mg/kg, effective when T/C >= 120%), 165%.

Turning to `COc1cc(NS(C)(=O)=O)ccc1Nc1c2c(nc3c(C)cccc13)-c1c(C)cccc1C2` [Compound 1, 6-4-(methanesulfonamide-2-methoxyanilino)-1,10-dimethylindeno[3,2-b]quinoline], the responders at 100 mg/kg in assay [2] (setting [5]) was 16.7%. Besides, the responders at 200 mg/kg in assay [2] (setting [6]) was 16.7%.

Take `COc1cc(NS(C)(=O)=O)ccc1Nc1c2c(nc3c(C)cccc13)-c1ccccc1C2` [Compound 2, 6-4-(methanesulfonamide-2-methoxyanilio)-10-methylindeno[3,2-b]quinoline]: the responders at 100 mg/kg in assay [2] (setting [5]) is 16.7%.

Consider `CN(C)c1cc(NS(C)(=O)=O)ccc1Nc1c2c(nc3ccccc13)-c1ccccc1C2` [Compound 6, 6-(4-methanesulfonamide-2-dimethylaminoanilino)-indeno[3,2-b]quinoline], for which, in assay [2] (setting [6]), the responders at 200 mg/kg is 33.3%.

Regarding `COc1cc(NS(C)(=O)=O)ccc1Nc1c2cccc(C)c2nc2c1[nH]c1ccccc12` [Compound 9], in assay [2] (setting [7]), the responders at 25 mg/kg is 16.7%. Besides, the responders at 50 mg/kg in assay [2] (setting [8]) was 66.7%.

As to `COc1cc(NS(C)(=O)=O)ccc1Nc1c2cccc(C)c2nc2c1[nH]c1cccc(C)c12` [Compound 10, 6-(4-methanesulfonamide-2-methoxyanilino)-1,10-dimethylindolo[3,2-b]quinoline], in assay [2] (setting [5]), the responders at 100 mg/kg was 16.7%.

Regarding `COc1cc(NS(C)(=O)=O)ccc1Nc1c2cccc(C)c2nc2c1[nH]c1cc(C)ccc12` [Compound 11, 6-(4-methanesulfonamide-2-methoxyanilino)-3,10-dimethylindolo[3,2-b]quinoline], the responders at 12.5 mg/kg in assay [2] (setting [9]) was 16.7%. In addition, in assay [2] (setting [7]), the responders at 25 mg/kg was 33.3%. In assay [2] (setting [8]), the responders at 50 mg/kg is 16.7%.

Turning to `COc1cc(NS(C)(=O)=O)ccc1Nc1c2ccccc2nc2c1[nH]c1ccc(Cl)cc12` [Compound 12], the responders at 25 mg/kg in assay [2] (setting [7]) was 16.7%. Besides, the responders at 50 mg/kg in assay [2] (setting [8]) was 16.7%.

Consider `COC(=O)Nc1ccc(Nc2c3ccccc3nc3c2[nH]c2ccccc23)c(OC)c1` [Compound 14], for which the responders at 100 mg/kg in assay [2] (setting [5]) is 16.7%.

For `COc1cc(NC(C)=O)ccc1Nc1c2ccccc2nc2c1[nH]c1ccccc12` [Compound 15], the responders at 100 mg/kg in assay [2] (setting [5]) was 16.7%.

Regarding `COc1cc(NS(C)(=O)=O)ccc1Nc1c2ccccc2nc2c1[nH]c1cccc(C)c12` [Compound 16, 6-(4-methanesulfonamide-2-methoxyanilino)-1-mehtylindolo[3,2-b]quinoline], in assay [2] (setting [9]), the responders at 12.5 mg/kg was 33.3%. Besides, the responders at 25 mg/kg in assay [2] (setting [7]) is 33.3%.

For `COc1cc(NS(C)(=O)=O)ccc1Nc1c2ccccc2nc2c1[nH]c1ccc([N+](=O)[O-])cc12` [Compound 18, 6-(4-methanesulfonamide-2-methoxyanilino)-2-nitroindolo[3,2-b]quinoline], the responders at 12.5 mg/kg in assay [2] (setting [9]) was 16.7%. Also, in assay [2] (Mus musculus, P388, ip, 12.5 mg/kg, effective when T/C >= 120%, read-out: Ratio of Life Prolongation (%) (T/C %)), the response vs control in vivo at 12.5 mg/kg amounted to 164%. In addition, in assay [2] (Mus musculus, P388, ip, 25 mg/kg, effective when T/C >= 120%, read-out: Ratio of Life Prolongation (%) (T/C %)), the response vs control in vivo at 25 mg/kg amounted to 131%. The response vs control in vivo at 50 mg/kg in assay [2] (setting [10]) amounted to 70%.

On to `COc1cc(NS(C)(=O)=O)ccc1Nc1c2ccccc2nc2c1[nH]c1ccc(F)cc12` [Compound 19, 2-fluoro-6-(4-methanesulfonamide-2-methoxyanilino)indolo[3,2-b]quinoline], for which the responders at 12.5 mg/kg in assay [2] (setting [9]) was 50%. Also, the responders at 25 mg/kg in assay [2] (setting [7]) was 33.3%. Further, the response vs control in vivo at 50 mg/kg in assay [2] (setting [10]) worked out at 93%.

`COc1cc(O)ccc1Nc1c2ccccc2nc2c1[nH]c1ccccc12` [Compound 20]: the responders at 25 mg/kg in assay [2] (setting [7]) is 16.7%. The response vs control in vivo at 50 mg/kg in assay [2] (setting [10]) came out at 202%.

Take `COc1cc(OC(C)=O)ccc1Nc1c2ccccc2nc2c1[nH]c1ccccc12` [Compound 21]: the responders at 50 mg/kg in assay [2] (setting [8]) was 16.7%. The response vs control in vivo at 100 mg/kg in assay [2] (Mus musculus, P388, ip, 100 mg/kg, effective when T/C >= 120%, read-out: Ratio of Life Prolongation (%) (T/C %)) is 212%.

As for `COc1cc(NS(C)(=O)=O)ccc1Nc1c2ccccc2nc2c1[nH]c1ccc(N)cc12` [Compound 22, 2-amino-6-(4-methanesulfonamide-2-methoxyanilino)indolo[3,2-b]quinoline], in assay [2] (setting [8]), the responders at 50 mg/kg was 16.7%. Also, the response vs control in vivo at 50 mg/kg in assay [2] (setting [10]) is 242%.

`COc1cc(NS(C)(=O)=O)ccc1Nc1c2ccccc2nc2c1[nH]c1ccc(NC3OC(COC(C)=O)C(OC(C)=O)C(OC(C)=O)C3OC(C)=O)cc12` (centres unmarked) [Compound 23, N-{4-[(7-(2,3,4,6-tetra-O-acetylglycosyl-1-amino)-10H-indolo[3,2-b]quinoline-11-yl)amino]-3-methoxyphenyl} methanesulfonamide]: the “Conc. (ED50), concentration necessary for exerting 50% growth inhibition of KB cells” value in assay [1] was less than 0.3 µg/mL. The “cure (mice cured / mice in group)” value is listed as 2/6 in assay [2] (12.5 mg/kg) and 1/6 in assay [2] (25 mg/kg). Besides, the “Ratio of Life Prolongation (%) (T/C %)” value stood at 300% in assay [2] (12.5 mg/kg, effective when T/C >= 120%); 148% in assay [2] (setting [3]); 58% in assay [2] (setting [4]).

Regarding `COc1cc(NS(C)(=O)=O)ccc1Nc1c2ccccc2nc2c1[nH]c1ccc(NC(C)=O)cc12` [Compound 25], the response vs control in vivo at 50 mg/kg in assay [2] (setting [10]) was found to be 184%.

Turning to `COc1cc(NS(C)(=O)=O)ccc1Nc1c2ccccc2nc2c1[nH]c1ccc(NS(C)(=O)=O)cc12` [Compound 26, 2-methanesulfonamide-6-(4-methanesulfonamide-2-methoxyanilino)indolo[3,2-b]quinoline], the response vs control in vivo at 50 mg/kg in assay [2] (setting [10]) turned out to be 143%.

With `COc1cc(NS(C)(=O)=O)ccc1Nc1c2cccc(C)c2nc2c1oc1ccccc12` [Compound 27, 6-(4-methanesulfonamide-2-methoxyanilino)-10-methylbenzofurano[3,2-b]quinoline], the responders at 200 mg/kg in assay [2] (setting [6]) was 16.7%. Also, in assay [2] (setting [11]), the responders at 400 mg/kg is 33.3%. Further, the response vs control in vivo at 400 mg/kg in assay [2] (Mus musculus, P388, ip, 400 mg/kg, effective when T/C >= 120%, read-out: Ratio of Life Prolongation (%) (T/C %)) is 310%.

With `COc1cc(NS(C)(=O)=O)ccc1Nc1c2cccc(C)c2nc2c1oc1cccc(C)c12` [Compound 28, 6-(4-methanesulfonamide-2-methoxyanilino)-1,10-dimethylbenzofurano[3,2-b]quinoline], the response vs control in vivo at 200 mg/kg in assay [2] (Mus musculus, P388, ip, 200 mg/kg, effective when T/C >= 120%, read-out: Ratio of Life Prolongation (%) (T/C %)) amounted to 103%.

Regarding `COc1cc(NS(C)(=O)=O)ccc1Nc1c2cccc(C)c2nc2c1oc1cc(C)ccc12` [Compound 29, 6-(4-methanesulfonamide-2-methoxyanilino)-3,10-dimethylbenzofurano[3,2-b]quinoline], the responders at 100 mg/kg in assay [2] (setting [5]) was 16.7%. The responders at 200 mg/kg in assay [2] (setting [6]) was 16.7%.

For the molecule `COc1cc(NS(C)(=O)=O)ccc1Nc1c2ccccc2nc2c1oc1cc(C)ccc12` [Compound 31, 6-(4-methanesulfonamide-2-methoxyanilino)-3-methylbenzofurano[3,2-b]quinoline], the responders at 200 mg/kg in assay [2] (setting [6]) was 16.7%. The responders at 400 mg/kg in assay [2] (setting [11]) was 16.7%.

`COc1cc(NS(C)(=O)=O)ccc1Nc1c2ccccc2nc2c1sc1cccc(C)c12` [Compound 33, 6-(4-methanesulfonamide-2-methoxyanilino)-1-methylbenzothieno[3,2-b]quinoline]: the responders at 200 mg/kg in assay [2] (setting [6]) is 16.7%. Besides, the responders at 400 mg/kg in assay [2] (setting [11]) was 16.7%.
